Columns and labels:
Assay in all cases: relative viability (nuclei count vs DMSO), 5 days (fraction); higher = more cells survive
Pictilisib + Trametinib = compound: CS(=O)(=O)N1CCN(Cc2cc3nc(-c4cccc5[nH]ncc45)nc(N4CCOCC4)c3s2)CC1 [Pictilisib] + CC(=O)Nc1cccc(-n2c(=O)n(C3CC3)c(=O)c3c(Nc4ccc(I)cc4F)n(C)c(=O)c(C)c32)c1 [Trametinib] (partner 0.02 µM)
Method in brief: (§1)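 Lung cancer cell lines in 1536-well plates were dosed by pin tool the day after seeding, either with one drug alone or with a fixed anchor-drug dose plus five library-drug doses (not always all listed) in √10 steps. After 5 days, cells were fixed and their nuclei stained in one step (final 0.05% Triton X-100, 1% formaldehyde, 1 ug/ml Hoechst), then counted on 4× images. Relative viability is the nuclei count in treated wells divided by that in vehicle wells. Values are medians of duplicate plates.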

Pictilisib + Vorinostat = compound: CS(=O)(=O)N1CCN(Cc2cc3nc(-c4cccc5[nH]ncc45)nc(N4CCOCC4)c3s2)CC1 [Pictilisib] + O=C(CCCCCCC(=O)Nc1ccccc1)NO [Vorinostat] (partner 1 µM)
Method in brief: as §1

Pictilisib + Olaparib = compound: CS(=O)(=O)N1CCN(Cc2cc3nc(-c4cccc5[nH]ncc45)nc(N4CCOCC4)c3s2)CC1 [Pictilisib] + O=C(c1cc(Cc2n[nH]c(=O)c3ccccc23)ccc1F)N1CCN(C(=O)C2CC2)CC1 [Olaparib] (partner 8 µM)
Method in brief: as §1

MK-2206 + Bortezomib = compound: NC1(c2ccc(-c3nc4ccn5c(=O)[nH]nc5c4cc3-c3ccccc3)cc2)CCC1 [MK-2206] + CC(C)C[C@H](NC(=O)[C@H](Cc1ccccc1)NC(=O)c1cnccn1)B(O)O [Bortezomib] (partner 0.002 µM)
Method in brief: as §1

MK-2206 + Decitabine = compound: NC1(c2ccc(-c3nc4ccn5c(=O)[nH]nc5c4cc3-c3ccccc3)cc2)CCC1 [MK-2206] + Nc1ncn([C@H]2C[C@H](O)[C@@H](CO)O2)c(=O)n1 [Decitabine] (partner 2 µM)
Method in brief: as §1

Cell Line	relative viability (Pictilisib + Trametinib; first compound 0.02 µM)	relative viability (Pictilisib + Trametinib; first compound 0.06325 µM)	relative viability (Pictilisib + Trametinib; first compound 0.6325 µM)	relative viability (Pictilisib + Trametinib; first compound 2 µM)	relative viability (Pictilisib + Vorinostat; first compound 0.02 µM)	relative viability (Pictilisib + Vorinostat; first compound 0.06325 µM)	relative viability (Pictilisib + Vorinostat; first compound 0.6325 µM)	relative viability (Pictilisib + Vorinostat; first compound 2 µM)	relative viability (Pictilisib + Olaparib; first compound 0.02 µM)	relative viability (Pictilisib + Olaparib; first compound 0.06325 µM)	relative viability (Pictilisib + Olaparib; first compound 0.6325 µM)	relative viability (Pictilisib + Olaparib; first compound 2 µM)	relative viability (MK-2206 + Bortezomib; first compound 0.01 µM)	relative viability (MK-2206 + Bortezomib; first compound 0.03162 µM)	relative viability (MK-2206 + Bortezomib; first compound 0.3162 µM)	relative viability (MK-2206 + Bortezomib; first compound 1 µM)	relative viability (MK-2206 + Decitabine; first compound 0.01 µM)	relative viability (MK-2206 + Decitabine; first compound 0.03162 µM)	relative viability (MK-2206 + Decitabine; first compound 0.3162 µM)	relative viability (MK-2206 + Decitabine; first compound 1 µM)
NCI-H1915	0.322	0.295	0.285	0.244	0.537	0.521	0.536	0.403	0.257	0.277	0.28	0.225	0.969	1.02	0.983	0.862	0.263	0.252	0.264	0.251
NCI-H1975	0.326	0.369	0.194	0.142	0.708	0.665	0.386	0.204	0.764	0.818	0.523	0.248	0.464	0.34	0.28	0.261	0.387	0.346	0.36	0.323
NCI-H1993	0.543	0.469	0.523	0.488	0.713	0.639	0.494	0.436	0.964	0.94	0.763	0.388	1.08	1.2	0.769	0.613	0.533	0.585	0.516	0.491
NCI-H2009	0.36	0.277	0.167	0.116	0.766	0.723	0.645	0.5	0.743	0.634	0.592	0.422	0.969	1.03	1.12	0.94	0.379	0.376	0.432	0.365
NCI-H2023	0.52	0.404	0.315	0.172	0.685	0.662	0.35	0.178	0.521	0.451	0.354	0.134	0.958	0.838	0.778	0.612	0.247	0.225	0.243	0.211
NCI-H2085	0.443	0.471	0.2	0.26	0.792	0.832	0.498	0.319	0.764	0.823	0.586	0.353	1.06	1.12	0.929	0.716	0.511	0.584	0.513	0.514
NCI-H2087	0.204	0.165	0.138	0.153	0.61	1.06	0.919	0.539	0.537	0.477	0.493	0.345	0.763	0.875	0.807	0.69	0.244	0.273	0.24	0.196
NCI-H2126	0.532	0.531	0.378	0.278	0.794	0.732	0.504	0.317	0.911	0.894	0.713	0.496	1.09	1.11	1.07	1.06	0.575	0.528	0.526	0.574
NCI-H2347	0.271	0.269	0.25	0.24	0.669	0.607	0.416	0.321	0.639	0.626	0.474	0.406	0.914	1.11	1.06	0.92	0.585	0.573	0.591	0.557
NCI-H2405	0.719	0.515	0.355	0.254	1.26	1.06	0.842	0.432	0.871	0.867	0.735	0.422	0.96	1.1	0.958	0.987	0.766	0.788	0.72	0.74
NCI-H3122	0.201	0.202	0.161	0.122	0.91	0.965	0.759	0.504	0.603	0.659	0.595	0.329	1.03	0.942	1.09	0.973	0.38	0.416	0.396	0.426
PC-3 [JPC-3]	0.727	0.658	0.586	0.433	0.953	0.548	0.613	0.418	1.24	1.31	1.21	0.754	0.812	0.94	0.841	0.805	0.806	0.807	0.855	0.852
PC-14	0.749	0.761	0.537	0.196	0.72	0.661	0.534	0.325	0.385	0.39	0.442	0.341	0.732	0.858	0.811	0.851	0.22	0.248	0.215	0.253
RERF-LC-KJ	0.828	0.859	0.708	0.56	0.732	0.699	0.573	0.461	0.925	0.834	0.784	0.578	1.06	1.12	0.876	1.02	0.788	0.677	0.599	0.62
SK-LU-1	0.459	0.47	0.355	0.32	0.857	0.818	0.618	0.511	0.451	0.492	0.409	0.367	1.28	1.22	1.01	0.747	0.648	0.592	0.613	0.555
SW 1573	0.563	0.473	0.379	0.239	0.767	0.733	0.35	0.217	0.512	0.542	0.377	0.22	0.948	1.04	0.834	0.629	0.505	0.43	0.502	0.453
